Columns and labels:
WT P. aeruginosa = conditions: published literature; cited from earlier work
[1] = system: P. aeruginosa, WT, na1B and ΔABM; assay: Overnight culture, cell count by single-cell dark-field microscopy (MIC); type: cell-based, Pseudomonas aeruginosa; conditions: antibiotic concentration 3.13, 15.65 or 31.3 μg/mL
From the text: Images were taken of the 5 samples using a dark-field microscope equipped with a Micromax CCD camera. For each of the three strains of P. aeruginosa, 5 samples of the […], 0.2, 2, 20 or 90 pM were examined using dark-field microscopy to count the number of P. aeruginosa cells present. For each sample, 5 pictures were taken at different locations to obtain representative numbers of P. aeruginosa cells present in each sample and the numbers of P. aeruginosa cells counted in the 5 pictures were summed to obtain the total number of P. aeruginosa cells in the 5 pictures. FIG. […] However, at a metallic nanoparticle concentration of 0, 0.2 or 2 pM, there were 200 or more P. aeruginosa cells in the 5 pictures of the culture medium. […] There were green, blue and red metallic nanoparticles, but the most abundant were green. The red nanoparticles appeared to be the brightest under the dark-field microscope because of the larger size.
After the overnight incubation described above, images were taken using a dark-field microscope equipped with a Micromax CCD camera. For each of the three strains of P. aeruginosa in the presence of azthreonam or gentamicin at a concentration of 0.313, 3.13, 15.65 or 31.3 μg/mL, 4 samples of the culture medium were subjected to single-cell dark-field microscopy. […]

[2] = system: Pseudomonas aeruginosa cells (WT, na1B, ΔABM); assay: Overnight culture, visual inspection of turbidity (MIC); type: cell-based; conditions: visual inspection after overnight incubation
From the text: Three strains of Pseudomonas aeruginosa cells (WT, na1B, ΔABM) were used in this working example. “WT” stands for wild type P. aeruginosa, PA04290. The symbol “AABM” stands for a mutant of wild type P. aeruginosa, PA04290, lacking MexA, MaxB and OprM, wherein MexA, MexB and OprM are component genes of an efflux system in wild type P. aeruginosa. The symbol “na1B” stands for a mutant of wild type P. aeruginosa, PA04290, having over expression of the MexA, MexB and OprM genes. These three strains were precultured in autoclaved test tubes overnight. Each test tube contained 3 mL of L-broth medium (1% tryptone, 0.5% yeast extract and 0.5% NaCl, pH 7.2) and was placed inside a shaker at 37° C. and 230 rpm. Then, 20 μL of this pre-cultured cell medium was transferred to each new test tube containing 2 mL of L-broth medium and 0, 2, 20, 40, 80, 100, 200 and 400 μL of a sterile liquid containing 300 pM silver enhanced gold particles (as the metallic nanoparticles used in this example) prepared as described in Example 1. […] Based on visual inspection of test tubes (the presence or absence of turbidity in the medium in each of the test tube) after the overnight incubation, it was determined that the bacterial cells grew at a concentration of the silver coated gold particles of less than 20 pM, but not at a concentration of 20 pM or more. […]

[3] = system: P. aeruginosa, WT, na1B and ΔABM; assay: Overnight culture, absorbance at 600 nm by UV-vis spectroscopy (MIC); type: cell-based, Pseudomonas aeruginosa; conditions: antibiotic concentration 3.13, 15.65 or 31.3 μg/mL, three strains
Method: After the overnight incubation, the absorbance of the […] an UV-vis spectrometer to determine the concentrations of bacterial cells based upon the light scattering of bacterial cells for the three strains of P. aeruginosa, WT, na1B and ΔABM. For each strain of P. aeruginosa cells and each concentration of the silver coated gold particles, the absorbances of 5 samples of the culture medium were measured with the absorbance of each sample measured 3 times and the average absorbance was calculated. The absorbance of ultra-pure water containing the corresponding concentration of silver coated gold particles was subtracted from the average absorbance and the resulting absorbance was plotted in FIG. 1 versus the concentrations of the silver coated gold particles used in the incubation. […] Thus, the MICs of the silver coated gold particles were determined to be about 20 pM for these three strains of P. aeruginosa.
With a UV-vis spectrometer, the absorbance of each sample of the culture medium was measured at 600 nm after the overnight incubation to determine the P. aeruginosa cell concentration based upon light scattering of cells. For each strain of P. aeruginosa cells, the absorbances of 4 samples of the P. aeruginosa culture medium containing azthreonam or gentamicin at a concentration of 0.313, 3.13, 15.65 or 31.3 μg/mL were measured. […]

Molecule | MIC (WT P. aeruginosa) | total number of P. aeruginosa cells present in the 5 pictures [1] | minimum inhibitory concentrations (MICs) [2] | absorbance at 600 nm [3]
gentamicin | about 3.13 μg/mL | almost zero | about 3.13 μg/mL | almost zero
C[C@H]1[C@H](NC(=O)/C(=N\OC(C)(C)C(=O)O)c2csc(N)n2)C(=O)N1S(=O)(=O)O [azthreonam] | about 3.13 μg/mL | almost zero | about 3.13 μg/mL | almost zero

— US20030108612A1, “Metallic nanoparticles for inhibition of bacterium growth” (priority 2001, published 2003)
